Results taken from patent publication US20250188069A1, “COMPOUNDS AND METHODS FOR DEGRADING CASEIN KINASE 1 ALPHA” (PIN THERAPEUTICS, INC., priority 2022, published 2025).
Structures can show the parent of a compound that is named as a salt. Where two headings read alike, the source gives them in different places.

Legend:
MV-4-11 cells = assay: AML cell viability assay (RealTime-Glo); type: cell-based; settings: Homo sapiens, read-out: Cell viability classification
CK1α = CK1α (Homo sapiens, UniProt P48729+Q96SW2); assay: CK1α degradation, Jess assay in MV-4-11 cells; type: cell-based; design: CK1α levels were determined in MV-4-11 cells using Jess (Protein Simple); host or cells: MV-4-11; dose or concentration left out as unconfirmed; settings: MV4-11, % reduction of CK1α compared to DMSO, MV-4-11 cells for 16 hours, normalized to β-actin, read-out: CK1α degradation classification
Description: MM.1S and NCCIT cells were obtained from ATCC and grown in RPMI-1640 supplemented with 10% FBS. MV-4-11 cells were obtained from ATCC and grown in IMDM supplemented with 10% FBS. The cells were maintained at 37° C. under 5% CO2.
Compounds of the present disclosure was added to cells (final DMSO concentration of 0.1%) and incubated for 16 hours. CK1α levels were determined in MV-4-11 cells using Jess (Protein Simple). Briefly, whole cell lysates were prepared in lysis buffer (1×RIPA buffer [Thermo, 89900], 2 mM MgCl2 [Sigma, M1028], 0.05% Benzonase [Sigma, E1014], 1× Pierce protease inhibitor tablets EDTA-free [Thermo, A32965]). 6-20 μg of the lysates were analyzed using Jess with antibodies against CK1α (Abcam, ab108296) and β-actin (R&D Systems, MAB8929). Protein levels were normalized to β-actin levels. DC50 values were obtained using four-parameter non-linear regressions using Prism (GraphPad).
The efficacy of CK1α degradation of a part of compounds of the present disclosure was determined by treating MV-4-11 cells at […] (final DMSO concentration of 0.1%) for 16 hours. CK1α levels were determined using Jess and normalized to β-actin levels. The compounds are classified based on amount of CK1α degradation (% reduction of CK1α compared to DMSO) as follows. • A: Degradation is greater than or equal to 75%; • B: Degradation is less than […] & greater than or equal to 50%; • C: Degradation is less than […]; • ND: not determined.

[1] = MV4-11, IC50 class, MV-4-11 cells, RealTime-Glo after 44 hrs of treatment (TABLE 1)

Sequence of CK1α (P48729 whole entry): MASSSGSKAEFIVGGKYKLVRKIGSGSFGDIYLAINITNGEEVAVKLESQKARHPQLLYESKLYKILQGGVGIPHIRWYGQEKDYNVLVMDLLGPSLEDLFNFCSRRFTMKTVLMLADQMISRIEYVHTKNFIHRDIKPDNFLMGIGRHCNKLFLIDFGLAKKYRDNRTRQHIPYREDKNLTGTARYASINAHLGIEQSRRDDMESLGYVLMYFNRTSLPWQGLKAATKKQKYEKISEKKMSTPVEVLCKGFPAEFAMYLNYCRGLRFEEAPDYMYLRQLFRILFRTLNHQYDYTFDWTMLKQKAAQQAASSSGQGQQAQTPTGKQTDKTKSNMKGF
Sequence of CK1α (Q96SW2 whole entry): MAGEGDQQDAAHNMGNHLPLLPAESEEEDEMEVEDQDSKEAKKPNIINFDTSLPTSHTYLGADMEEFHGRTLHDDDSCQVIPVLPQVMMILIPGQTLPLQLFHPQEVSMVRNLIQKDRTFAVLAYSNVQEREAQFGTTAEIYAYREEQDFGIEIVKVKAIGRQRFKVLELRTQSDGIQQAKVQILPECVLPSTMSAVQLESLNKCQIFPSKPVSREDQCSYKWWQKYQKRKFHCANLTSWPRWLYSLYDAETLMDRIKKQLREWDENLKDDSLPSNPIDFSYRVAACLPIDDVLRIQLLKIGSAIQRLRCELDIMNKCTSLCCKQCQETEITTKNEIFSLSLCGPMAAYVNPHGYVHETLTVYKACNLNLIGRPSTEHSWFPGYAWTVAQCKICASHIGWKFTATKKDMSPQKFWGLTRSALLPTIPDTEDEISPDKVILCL
Sequence of CK1α (Q16531 whole entry partner): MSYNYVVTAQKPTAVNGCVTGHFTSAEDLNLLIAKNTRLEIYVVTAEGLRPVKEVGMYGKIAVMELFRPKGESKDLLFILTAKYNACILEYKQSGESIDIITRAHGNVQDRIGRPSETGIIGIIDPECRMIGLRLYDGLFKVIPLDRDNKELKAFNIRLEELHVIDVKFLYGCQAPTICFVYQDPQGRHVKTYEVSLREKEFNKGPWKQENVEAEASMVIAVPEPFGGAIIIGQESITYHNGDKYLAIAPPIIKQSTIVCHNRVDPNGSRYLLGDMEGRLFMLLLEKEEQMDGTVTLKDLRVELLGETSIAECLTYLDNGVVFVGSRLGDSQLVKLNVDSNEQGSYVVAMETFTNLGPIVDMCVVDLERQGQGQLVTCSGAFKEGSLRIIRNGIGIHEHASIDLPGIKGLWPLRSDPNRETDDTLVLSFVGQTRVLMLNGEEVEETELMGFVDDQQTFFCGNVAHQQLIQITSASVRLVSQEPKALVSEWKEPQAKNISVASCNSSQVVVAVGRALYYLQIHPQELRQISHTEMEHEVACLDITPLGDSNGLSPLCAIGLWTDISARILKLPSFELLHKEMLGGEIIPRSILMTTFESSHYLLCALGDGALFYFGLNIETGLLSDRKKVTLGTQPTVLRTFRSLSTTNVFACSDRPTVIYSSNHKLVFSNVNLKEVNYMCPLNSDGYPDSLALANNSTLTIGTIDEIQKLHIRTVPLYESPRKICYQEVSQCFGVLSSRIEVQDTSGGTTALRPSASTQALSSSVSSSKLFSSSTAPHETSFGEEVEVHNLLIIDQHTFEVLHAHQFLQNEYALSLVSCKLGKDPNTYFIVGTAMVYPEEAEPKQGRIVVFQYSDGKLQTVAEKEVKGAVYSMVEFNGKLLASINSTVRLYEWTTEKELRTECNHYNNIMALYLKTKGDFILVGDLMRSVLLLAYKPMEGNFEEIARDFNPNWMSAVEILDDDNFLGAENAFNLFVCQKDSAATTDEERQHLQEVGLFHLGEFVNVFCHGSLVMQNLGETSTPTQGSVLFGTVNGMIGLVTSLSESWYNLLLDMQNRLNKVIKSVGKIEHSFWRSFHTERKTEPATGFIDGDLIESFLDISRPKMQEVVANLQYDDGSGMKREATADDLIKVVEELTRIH

Row | IC50 (MV-4-11 cells; [1]) | Dmax (CK1α) | Structure (SMILES) | IC50 (MV-4-11 cells; MV4-11, 44 h)
1 | < 100 nM | > 75% | CCCN(CCCCN)c1cccc2c1CN(C1CCC(=O)NC1=O)C2=O (stereo not shown) [Compound 4, 3-(4-((4-aminobutyl)(propyl)amino)-1-oxoisoindolin-2-yl)piperidine-2,6-dione] | 
2 | < 100 nM | > 75% | CCCCN(CCCCN)c1cccc2c1CN(C1CCC(=O)NC1=O)C2=O (stereo not shown) [Compound 46, 3-(4-((4-aminobutyl)(butyl)amino)-1-oxoisoindolin-2-yl)piperidine-2,6-dione] | 
3 | < 100 nM | > 75% | CCCCCCN(CCCCN)c1cccc2c1CN(C1CCC(=O)NC1=O)C2=O (stereo not shown) [Compound 48, 3-(4-((4-aminobutyl)(hexyl)amino)-1-oxoisoindolin-2-yl)piperidine-2,6-dione] | 
4 | < 100 nM | > 75% | CCCN(CCCCNC(C)=O)c1cccc2c1CN(C1CCC(=O)NC1=O)C2=O (stereo not shown) [Compound 50, N-(4-((2-(2,6-dioxopiperidin-3-yl)-1-oxoisoindolin-4-yl)(propyl)amino)butyl)acetamide] | 
5 | 100 to 1000 nM | 50 to 7500% | NCCCCN(CCCCCO)c1cccc2c1CN(C1CCC(=O)NC1=O)C2=O (stereo not shown) [Compound 51, 3-(4-((4-aminobutyl)(5-hydroxypentyl)amino)-1-oxoisoindolin-2-yl)piperidine-2,6-dione] | 
6 | 100 to 1000 nM | > 75% | CC(C)CCCCCN(CCCCN)c1cccc2c1CN(C1CCC(=O)NC1=O)C2=O (stereo not shown) [Compound 52, 3-(4-((4-aminobutyl)(6-methylheptyl)amino)-1-oxoisoindolin-2-yl)piperidine-2,6-dione] | 
7 | 100 to 1000 nM | > 75% | NCCCCCN(CCCCN)c1cccc2c1CN(C1CCC(=O)NC1=O)C2=O (stereo not shown) [Compound 55, 3-(4-((4-aminobutyl)(5-aminopentyl)amino)-1-oxoisoindolin-2-yl)piperidine-2,6-dione dihydrochloride] | 
8 | 100 to 1000 nM | 50 to 7500% | NCCCCN(CCCCCCO)c1cccc2c1CN(C1CCC(=O)NC1=O)C2=O (stereo not shown) [Compound 56, 3-(4-((4-aminobutyl)(6-hydroxyhexyl)amino)-1-oxoisoindolin-2-yl)piperidine-2,6-dione] | 
9 | < 100 nM | > 75% | CCCN(CCCCCN)c1cccc2c1CN(C1CCC(=O)NC1=O)C2=O (stereo not shown) [Compound 57, 3-(4-((5-aminopentyl)(propyl)amino)-1-oxoisoindolin-2-yl)piperidine-2,6-dione] | 
10 | < 100 nM | > 75% | NCCCCCCN(CCCCN)c1cccc2c1CN(C1CCC(=O)NC1=O)C2=O (stereo not shown) [Compound 60, 3-(4-((4-aminobutyl)(6-aminohexyl)amino)-1-oxoisoindolin-2-yl)piperidine-2,6-dione] | 
11 | < 100 nM | > 75% | CCCN(CCCCC(=O)NC)c1cccc2c1CN(C1CCC(=O)NC1=O)C2=O (stereo not shown) [Compound 63, 5-((2-(2,6-dioxopiperidin-3-yl)-1-oxoisoindolin-4-yl)(propyl)amino)-N-methylpentanamide] | 
12 | 100 to 1000 nM | 50 to 7500% | CCCCN(C/C=C/CN)c1cccc2c1CN(C1CCC(=O)NC1=O)C2=O (stereo not shown) [Compound 66, (E)-3-(4-((4-aminobut-2-en-1-yl)(butyl)amino)-1-oxoisoindolin-2-yl)piperidine-2,6-dione] | 
13 | < 100 nM | > 75% | CCCCN(C/C=C\CN)c1cccc2c1CN(C1CCC(=O)NC1=O)C2=O (stereo not shown) [Compound 67, (Z)-3-(4-((4-aminobut-2-en-1-yl)(butyl)amino)-1-oxoisoindolin-2-yl)piperidine-2,6-dione] | 
14 | < 100 nM | > 75% | C/C=C/CN(CCCCN)c1cccc2c1CN(C1CCC(=O)NC1=O)C2=O (stereo not shown) [Compound 68, (E)-3-(4-((4-aminobutyl)(but-2-en-1-yl)amino)-1-oxoisoindolin-2-yl)piperidine-2,6-dione] | 
15 | 100 to 1000 nM | 50 to 7500% | C/C=C\CN(CCCCN)c1cccc2c1CN(C1CCC(=O)NC1=O)C2=O (stereo not shown) [Compound 69, (Z)-3-(4-((4-aminobutyl)(but-2-en-1-yl)amino)-1-oxoisoindolin-2-yl)piperidine-2,6-dione] | 
16 | < 100 nM | > 75% | CCCCCN(CCCCNC)c1cccc2c1CN(C1CCC(=O)NC1=O)C2=O (stereo not shown) [Compound 80, 3-(4-((4-(methylamino)butyl)(pentyl)amino)-1-oxoisoindolin-2-yl)piperidine-2,6-dione.Hydrochloride] | 
17 | < 100 nM | 50 to 7500% | CCCCCN(CCCCNC(C)=O)c1cccc2c1CN(C1CCC(=O)NC1=O)C2=O (stereo not shown) [Compound 82, N-(4-((2-(2,6-dioxopiperidin-3-yl)-1-oxoisoindolin-4-yl)(pentyl)amino)butyl)acetamide] | 
18 | < 100 nM | > 75% | CCCCCN(c1cccc2c1CN(C1CCC(=O)NC1=O)C2=O)[C@H]1CC[C@@H](N)CC1 (stereo partly drawn) [Compound 87, 3-(4-(((1S,4S)-4-aminocyclohexyl)(pentyl)amino)-1-oxoisoindolin-2-yl)piperidine-2,6-dione hydrochloride] | 
19 | < 100 nM | > 75% | CCCCCN(c1cccc2c1CN(C1CCC(=O)NC1=O)C2=O)[C@H]1CC[C@H](N)CC1 (stereo partly shown) [Compound 88, 3-(4-(((1r,4r)-4-aminocyclohexyl)(pentyl)amino)-1-oxoisoindolin-2-yl)piperidine-2,6-dione, HCl] | 
20 | < 100 nM | > 75% | CCCCCN(c1cccc2c1CN(C1CCC(=O)NC1=O)C2=O)[C@H]1CC[C@@H](CN)CC1 (stereo partly drawn) [Compound 89, 3-(4-(((1S,4S)-4-(aminomethyl)cyclohexyl)(pentyl)amino)-1-oxoisoindolin-2-yl)piperidine-2,6-dione hydrochloride] | 
21 | < 100 nM | > 75% | CCCCCN(c1cccc2c1CN(C1CCC(=O)NC1=O)C2=O)[C@H]1CC[C@H](CN)CC1 (stereo partly drawn) [Compound 90, 3-(4-(((1R,4R)-4-(aminomethyl)cyclohexyl)(pentyl)amino)-1-oxoisoindolin-2-yl)piperidine-2,6-dione hydrochloride] | 
22 | > 1000 nM | 50 to 7500% | CCCCN(CC#CCN)c1cccc2c1CN(C1CCC(=O)NC1=O)C2=O (stereo not shown) [Compound 115, 3-(4-((4-aminobut-2-yn-1-yl)(butyl)amino)-1-oxoisoindolin-2-yl)piperidine-2,6-dione] | 
23 | < 100 nM | > 75% | CC#CCN(CCCCN)c1cccc2c1CN(C1CCC(=O)NC1=O)C2=O (stereo not shown) [Compound 116, 3-(4-((4-aminobutyl)(but-2-yn-1-yl)amino)-1-oxoisoindolin-2-yl)piperidine-2,6-dione] | 
24 | < 100 nM | > 75% | N[C@H]1CC[C@H](N(CCCc2ccccc2)c2cccc3c2CN(C2CCC(=O)NC2=O)C3=O)CC1 (stereo partly shown) [Compound 251, 3-(4-(((1r,4r)-4-aminocyclohexyl)(3-phenylpropyl)amino)-1-oxoisoindolin-2-yl)piperidine-2,6-dione hydrochloride] | 
25 | < 100 nM | > 75% | CCCCCN(c1cccc2c1CN(C1CCC(=O)NC1=O)C2=O)[C@@H]1CC[C@@H](N)C1 (stereo partly drawn) [Compound 323, 3-(4-(((1R,3R)-3-aminocyclopentyl)(pentyl)amino)-1-oxoisoindolin-2-yl)piperidine-2,6-dione] | 
26 | < 100 nM | > 75% | CCCCCN(c1cccc2c1CN(C1CCC(=O)NC1=O)C2=O)[C@@H]1CC[C@H](N)C1 (stereo partly drawn) [Compound 324, 3-(4-(((1R,3S)-3-aminocyclopentyl)(pentyl)amino)-1-oxoisoindolin-2-yl)piperidine-2,6-dione] | 
27 | < 100 nM | > 75% | NC[C@H]1CC[C@@H](N(CCCC2CCOCC2)c2cccc3c2CN(C2CCC(=O)NC2=O)C3=O)CC1 (stereo partly shown) [Compound 333, 3-(4-(((1s,4s)-4-(aminomethyl)cyclohexyl)(3-(tetrahydro-2H-pyran-4-yl)propyl)amino)-1-oxoisoindolin-2-yl)piperidine-2,6-dione] | 
28 | < 100 nM | > 75% | NC[C@H]1CC[C@@H](N(CCC2CC2)c2cccc3c2CN(C2CCC(=O)NC2=O)C3=O)CC1 (stereo partly shown) [Compound 358, 3-(4-(((1s,4s)-4-(aminomethyl)cyclohexyl)(2-cyclopropylethyl)amino)-1-oxoisoindolin-2-yl)piperidine-2,6-dione] | 

Row | Structure (SMILES) | IC50 (MV-4-11 cells; [1]) | Dmax (CK1α) | IC50 (MV-4-11 cells; MV4-11, 44 h)
29 | CCCCCN(CCCCN)c1cccc2c1CN(C1CCC(=O)NC1=O)C2=O (stereo not shown) [Compound 47, 3-(4-((4-aminobutyl)(pentyl)amino)-1-oxoisoindolin-2-yl)piperidine-2,6-dione] |  | > 75% | < 100 nM
